Where two headings read alike, the source gives them in different places.
Tests used:
thrombin = molecular target: T1, thrombin (Homo sapiens, UniProt P00734); assay: Human Thrombin Generation Assay (TGA); format: biochemical; settings: concentration that reduces endogenous thrombin potential AUC by 50%; human plasma; read-out: ETP EC50
T1 construct: from tissue; host or cells: human plasma (thrombin generated in situ by tissue factor, phospholipids and CaCl2)
Protocol: Results for the human thrombin generation assay (TGA; not to be confused with “thermogravimetric analysis” which is used elsewhere and carries the same acronym. One of skill in the art will appreciate which meaning is intended based on context of the surrounding technical information.) were generated as follows. In a 96-well plate, 4 μL of 100, 33.3, 11.1, 3.7, 1.23, 0.41, 0.137, and 0.046 μM solutions of the test compounds in DMSO were added to sequential wells filled with 68 μL of a “TGA Working Solution.” See description of this solution as well as other relevant solutions below. The plate was incubated at room temperature for 10 minutes, whereupon 8 μL of warm “Substrate Solution” was added to each well, resulting in a 500 μM concentration of the substrate, Z-GGR-AMC (Z-Gly-Gly-Arg-7-amino-4-methylcoumarin·HCl), in each well. Fluorescence intensity data (Ex/Em 380/460 nm) collection began immediately using a Cytation™ or Synergy™ H1 96-well plate reader set to incubate the plate at 37° C. over the data collection time of 90 minutes following double-orbital shaking for a period of 4 seconds. Test compounds were measured parallel to blanks and controls, as well as to wells of the substrate in DMSO at various concentrations (2.50, 0.833, 0.278, 0.093 mM) in the buffers to generate a standard fluorescence curve. Data values were computed automatically, including the ETP EC50 value of the AUC, which is the concentration of the compound that reduces endogenous thrombin potential AUC by 50%.
The various solutions were prepared as follows. A HEPES/NaCl Assay buffer was made by combining 7.5 mL of 5M NaCl, 1.19 g 4-(2-hydroxyethyl)piperazine-1-ethanesulfonic acid (HEPES) and 230 mL of water. An “Innovin Master Solution” was made by combining 20 μL of Siemens Dade Innovin recombinant tissue factor and thromboplastin with 50 μL of 0.5 mM phospholipid-TGT acquired from DiaPharma® in 450 μL of the above HEPES/NaCl Assay buffer. This solution was then vortexed for a few seconds. Next the “Substrate Master Solution” was made by adding 3.2 mL DMSO to 100 mg of Z-GGR-AMC (Z-Gly-Gly-Arg-7-amino-4-methylcoumarin·HCl) and vortexing in a polystyrene tube. This solution was stored at −20° C. A “TGA Working Solution” was prepared by adding 6.2 mL of human plasma, 50 μL of the Innovin Master Solution, and 80 μL of phospholipids to 2.6 mL of HEPES/NaCl Assay buffer. A “Substrate Working Solution” was made immediately before addition to the assay plate by adding 200 μL of the above “Substrate Master Solution” to a pre-warmed (37° C.) mixture of 1.46 mL of HEPES/NaCl Assay buffer and 340 μL of 1M CaCl2).
For additional description of this assay, please see Robert, S. et al. ‘Is thrombin generation the new rapid, reliable and relevant pharmacological tool for the development of anticoagulant drugs?’2009, Pharmacol Res 59:160-6 as well as Hemker, H. C. et al. ‘Calibrated automated thrombin generation measurement in clotting plasma.’ 2003, Pathophysiol Haemost Thromb 33:4-15.

Rat pharmacokinetics = format: in vivo; settings: Sprague-Dawley, plasma, SD rats; for C0: C0 by extrapolation
Protocol: Rat pharmacokinetic data were generated as follows. Compounds were administered intravenously (IV) via tail vein or orally (PO) via gastric gavage to Sprague-Dawley rats fitted with surgically implanted jugular vein catheters (JVC) with nominal weights between 250 and 275 g. Nominal doses were 1 mg/kg and 5 mg/kg for IV and PO, respectively. The doses for IV administration were formulated by dissolving the test compound in a mixture (v/v/v) of 5% N,N-dimethylacetamide (DMA), 15% Kolliphor® (Solutol®) HS15, and 80% sterile water at a dose concentration of 0.25 mg/mL. The doses for PO administration were formulated either as Option A or Option B. Option A was formulated by dissolving the test compound in a mixture (v/v) of 90% Kolliphor® (Solutol®) HS15 and 10% pure ethanol at a dose concentration of 0.25 mg/mL. Option B was formulated by dissolving the test compound in a mixture (v/v) of 20% Labrasol® and 80% Phosphate buffer at pH 6.8.
Animals were housed in standard holding cages with food and water available ad libitum except for animals used for PO dosing which were fasted overnight prior to dosing. One to three rats were used for each experiment. Samples were collected manually via its JVC just before the dosing, as well as at the time points of 5 min, 15 min, 30 min, 60 min, 120 min, 4 h, 8 h, 12 h, and 24 h. Alternatively, samples were collected automatically by transferring the animal to a BASi Culex® automated blood-sampling system for the duration of the experiment. Plasma was obtained by centrifuge and stored frozen until analyzed by LC-MS/MS using an AB Sciex™ QTrap® 5500 coupled to a Shimadzu Nexera X2 fitted with a Luna® Omega 1.6 μm Polar C18 100 Å, 50×2.1 mm, acquired from Phenomenex®. Samples were compared against a standard curve of the test compound at concentrations ranging from 10,000 to 0.3 ng/mL.
Pharmacokinetic parameters were calculated from mean concentration values using a non-compartmental analysis as described below and as apparent to those of ordinary skill in the art. Concentration at time zero (C0) for the IV was established by the extrapolation of log linear regression using equal weighting on the first three sample time points. Area under the curve (AUC) values were calculated using linear trapezoidal integration.

[1] = PO 5 mg/kg, Formulation B (20% Labrasol, 80% phosphate buffer pH 6.8)
[2] = PO 5 mg/kg, Formulation B (20% Labrasol, 80% phosphate buffer pH 6.8), read-out: PO AUC
[3] = PO 5 mg/kg, Formulation A (90% Kolliphor HS15, 10% ethanol)
[4] = PO 5 mg/kg, Formulation A (90% Kolliphor HS15, 10% ethanol), read-out: PO AUC

For `CC(C)(C)C(=O)n1nc(-c2cccn(CCC(N)=O)c2=O)cc1NCc1ccc(Cl)s1` [Compound 8, 3-[3-(5-{[(5-chlorothiophen-2-yl)methyl]amino}-1-(2,2-dimethylpropanoyl)-1H-pyrazol-3-yl)-2-oxo-1,2-dihydropyridin-1-yl]propanamide], the EC50 (thrombin) was 990 nM, the Cmax (Rat pharmacokinetics; [1]) was 230 ng/mL and the AUC (Rat pharmacokinetics; [2]) was 120 ng·h/mL.

Work on `O=C(O)Cn1cccc(-c2cc(NCc3ccc(Cl)s3)[nH]n2)c1=O` [Compound 3, 2-[3-(5-{[(5-chlorothiophen-2-yl)methyl]amino}-1H-pyrazol-3-yl)-2-oxo-1,2-dihydropyridin-1-yl]acetic acid] yielded an EC50 (thrombin) of over 100000 nM.

Work on `CCC(C)(C)C(=O)n1nc(-c2cccn(CCC(=O)O)c2=O)cc1NCc1ccc(Cl)s1` [Compound 11, 3-[3-(5-{[(5-chlorothiophen-2-yl)methyl]amino}-1-(2,2-dimethylbutanoyl)-1H-pyrazol-3-yl)-2-oxo-1,2-dihydropyridin-1-yl]propanoic acid] yielded an EC50 (thrombin) of 960 nM, a C0 (Rat pharmacokinetics; IV 1 mg/kg) of 6100 ng/mL and an AUC (Rat pharmacokinetics; IV 1 mg/kg, read-out: IV AUC) of 3200 ng·h/mL. It also gave a Cmax (Rat pharmacokinetics; [1]) of 1200 ng/mL and an AUC (Rat pharmacokinetics; [2]) of 2100 ng·h/mL.

`O=C(O)CCn1cccc(-c2cc(NCc3ccc(Cl)s3)n(C(=O)c3ccoc3)n2)c1=O` [Compound 12, 3-[3-(5-{[(5-chlorothiophen-2-yl)methyl]amino}-1-(furan-3-carbonyl)-1H-pyrazol-3-yl)-2-oxo-1,2-dihydropyridin-1-yl]propanoic acid] gave an EC50 (thrombin) of 1400 to 2100 nM, a C0 (Rat pharmacokinetics; IV 1 mg/kg) of 4600 ng/mL and an AUC (Rat pharmacokinetics; IV 1 mg/kg, read-out: IV AUC) of 930 ng·h/mL. For the same molecule, the Cmax (Rat pharmacokinetics; [3]) was 19 ng/mL and the AUC (Rat pharmacokinetics; [4]) was 28 ng·h/mL.

In the case of `CC(C)(C)C(=O)n1nc(-c2cccn(CCC(=O)O)c2=O)cc1NCc1ccc(Cl)s1` [Compound 1, 3-[3-(5-{[(5-chlorothiophen-2-yl)methyl]amino}-1-(2,2-dimethylpropanoyl)-1H-pyrazol-3-yl)-2-oxo-1,2-dihydropyridin-1-yl]propanoic acid], the EC50 (thrombin) is reported as 930 to 1700 nM, the C0 (Rat pharmacokinetics; IV 1 mg/kg) is reported as 6500 ng/mL and the AUC (Rat pharmacokinetics; IV 1 mg/kg, read-out: IV AUC) is reported as 3000 ng·h/mL. It also gave a Cmax (Rat pharmacokinetics; [3]) of 240 ng/mL and an AUC (Rat pharmacokinetics; [4]) of 2200 ng·h/mL.

Work on `CC(C)(C)C(=O)n1nc(-c2cccn(CCCC(=O)O)c2=O)cc1NCc1ccc(Cl)s1` [Compound 5, 4-[3-(5-{[(5-chlorothiophen-2-yl)methyl]amino}-1-(2,2-dimethylpropanoyl)-1H-pyrazol-3-yl)-2-oxo-1,2-dihydropyridin-1-yl]butanoic acid] yielded an EC50 (thrombin) of 1400 nM, a C0 (Rat pharmacokinetics; IV 1 mg/kg) of 5400 ng/mL and an AUC (Rat pharmacokinetics; IV 1 mg/kg, read-out: IV AUC) of 3300 ng·h/mL. The Cmax (Rat pharmacokinetics; [1]) was 930 ng/mL and the AUC (Rat pharmacokinetics; [2]) was 2100 ng·h/mL.

Molecule `O=C(O)CCn1cccc(-c2cc(NCc3ccc(Cl)s3)[nH]n2)c1=O` [Compound 2, 3-[3-(5-{[(5-chlorothiophen-2-yl)methyl]amino}-1H-pyrazol-3-yl)-2-oxo-1,2-dihydropyridin-1-yl]propanoic acid] has an EC50 (thrombin) of over 100000 nM, a C0 (Rat pharmacokinetics; IV 1 mg/kg) of 5600 ng/mL and an AUC (Rat pharmacokinetics; IV 1 mg/kg, read-out: IV AUC) of 760 ng·h/mL. For the same molecule, the Cmax (Rat pharmacokinetics; [1]) was 150 ng/mL and the AUC (Rat pharmacokinetics; [2]) was 140 ng·h/mL.

`CC(C)(C)C(=O)n1nc(-c2cccn(CC(=O)O)c2=O)cc1NCc1ccc(Cl)s1` [Compound 4, 2-[3-(5-{[(5-chlorothiophen-2-yl)methyl]amino}-1-(2,2-dimethylpropanoyl)-1H-pyrazol-3-yl)-2-oxo-1,2-dihydropyridin-1-yl]acetic acid] showed an EC50 (thrombin) of 2800 to 6200 nM, a C0 (Rat pharmacokinetics; IV 1 mg/kg) of 12000 ng/mL and an AUC (Rat pharmacokinetics; IV 1 mg/kg, read-out: IV AUC) of 2300 ng·h/mL. The Cmax (Rat pharmacokinetics; [3]) was 260 ng/mL and the AUC (Rat pharmacokinetics; [4]) was 2300 ng·h/mL.

Molecule `CC(C)(N)Cn1cccc(-c2cc(NCc3ccc(Cl)s3)n(C(=O)c3ccoc3)n2)c1=O` [Compound 9, 1-(2-amino-2-methylpropyl)-3-(5-{[(5-chlorothiophen-2-yl)methyl]amino}-1-(furan-3-carbonyl)-1H-pyrazol-3-yl)-1,2-dihydropyridin-2-one] has an EC50 (thrombin) of 430 nM, a C0 (Rat pharmacokinetics; IV 1 mg/kg) of 94 ng/mL and an AUC (Rat pharmacokinetics; IV 1 mg/kg, read-out: IV AUC) of 180 ng·h/mL. For the same molecule, the Cmax (Rat pharmacokinetics; [1]) was 5.8 ng/mL and the AUC (Rat pharmacokinetics; [2]) was 73 ng·h/mL.
